Tested on: hair follicles from biopsies of human scalps
Experiment: Hair follicles cultured in vitro for 8 days: increase in the diameter of the hair shaft (fiber)
Format: cell-based
Details: for average % of increase of the diameter of the shafts: same test as for proxylane, method states each glycoside at 10 μM, d0 to d8; for average % of increase between D0 and D8: PX 1 mM, hair shaft diameter
Description: The hair follicles come from biopsies of human scalps, from cosmetic surgery operations conducted on white Caucasian women aged 45 to 75 years.
The hair follicles are dissected according to the method described in patent application FR 2 736 721 and U.S. Pat. No. 5,712,169, and only the terminal anagen and pigmented hair follicles are studied.
Freshly dissected hair follicles are introduced into multi-well plates containing 500 μL of William's medium, Invitrogen reference 22551022, enriched with insulin to […], 10 ng/mL of hydrocortisone, 10 μg/mL of L-Glutamine and 0.5% antibiotics (Gibco, reference 15240-096).
The C-glycosides are then incubated versus a vehicle alone (control condition), the hair follicles are placed in the incubator (37° C., 5% CO2) and kept alive in these different conditions for 8 days. The culture mediums (of the treated and control conditions) are replaced every two days.
Each glycoside is studied at 10 μM, (dilution of the solid compound in water), versus the vehicle alone (water) for the control condition.
Each condition is carried out on 12 different hair follicles, which makes it possible to overcome inter-follicle variabilities, and repeated over 3 different subjects (biopsies of scalp from 3 different volunteers) in order to evaluate the robustness of the results, and to overcome inter-donor variability.
During the 8 days of treatment, all of the hair follicles are observed and photographed every two days in order to evaluate the maintaining of their survival. They are also measured using a binocular magnifier (Leica) provided with a micrometric eyepiece in order to ensure the proper growth thereof.
The diameter of the hair shaft is measured using photographs taken of all of the hair follicles at d0 and at d8. Using the Leica Application Suite software (Leica), the hair shaft is cropped, its surface is then calculated and its average diameter is determined. The increase in the diameter of the fiber generated in vitro is determined by: (average diameter at d8 Dd8−average diameter at d0 Dd0)*100/Dd0.

Row | Structure (SMILES) | average % of increase of the diameter of the shafts [%] | thickness of the newly-formed hair shaft (for each subject, in the presence of proxylane) | average % of increase between D0 and D8 (individual 1, control +9.7) | average % of increase between D0 and D8 (individual 2, control +2.7) | average % of increase between D0 and D8 (individual 3, control +4.3)
1 | COc1cc(CCC(O)CC2OC[C@@H](O)[C@H](O)[C@H]2O)ccc1O (stereo partly drawn) [Glycoside 2, (3R,4S,5R)-2-[2-hydroxy-4-(4-hydroxy-3methxyphenyl)butyl] tetrahydro-2Hpyran-3,4,5-triol] | 12.7 | – | – | – | –
2 | O[C@H]1[C@H](O)COC(OCCc2ccccc2)[C@@H]1O (stereo partly drawn) [Glycoside 3, 2-phenylethyl D-xylopyranoside] | 16 | – | – | – | –
3 | OC1OC[C@@H](O)[C@H](O)[C@H]1O (stereo partly drawn) [Glycoside 4, D-xylose] | 11 | – | – | – | –
4 | CC(O)C[C@@H]1OC[C@@H](O)[C@H](O)[C@H]1O (stereo partly drawn) [PX, 1,5-anhydro-6,8-dideoxy-L-gluco-octitol (Proxylane)] | – | increase in the thickness of the newly-formed hair shaft is observed | +17.5% | +11.2% | +14.5%
